# Results as given in patent publication US9326972B2, “Use of phenylmethimazoles, methimazole derivatives, and tautomeric cyclic thiones for the treatment of autoimmune/inflammatory diseases associated with toll-like receptor overexpression” (Ohio University, priority 2004, dated 2016).
# Where “and” joins values, the source holds several entries; their conditions need not be identical. Equal entries are not always repeated.
# What was measured:
# [1] = test system: ISRE; assay: ISRE-Luc reporter gene in FRTL-5 thyrocytes; format: cell-based, rat
# Experimental: Cells were co-transfected with ISRE-Luc and pRLTk-Int and then treated without (none) or with Poly I:C (100 μg/ml), LPS (100 ng/ml), IL-1β (10 ng/ml) TNF-α (25 ng/ml), IFN-β (100 U/ml) or IFN-γ (1000 U/ml) in the presence of DMSO (−) or C10 for 6 hours. Data were obtained using the Dual Luciferase Assay system. The effect on the ISRE element is not duplicated by an NF-κB reporter plasmid despite the similarity of the two elements: ([…])5 (SEQ ID NO:3) vs. ([…])5 (SEQ ID NO:4), respectively. Data are representative of multiple experiments.
# Plasmids for Reporter Gene Assays. Human IRF-3 was amplified from human cDNA and cloned into pCR 2.1 by the TOPO/TA (Invitrogen, Carlsbad, Calif.) cloning method, and then sequenced. IRF-3 was then excised by EcoRI digestion and subcloned into pCMV-BD (Stratagene, La Jolla, Calif.) for use in transactivation assays. To construct IFN-β-luc the human IFN-β promoter sequence was amplified from human genomic DNA (Clontech, Palo Alto, Calif.)) using Ex Taq™ Polymerase (Takara, Madison, Wis.). The PCR fragment contained human IFN-β promoter sequence from −125 to +34 relative to the transcription start site (+1) and incorporated KpnI and XhoI restriction sites at the 5′ and 3′ ends, respectively. The primers were as follows: hIFN-β (−125) KpnI (5′-[…]-3′) (SEQ ID NO:9) and hIFN-β (+34) XhoI (5′-[…]-3′). […]
# [2] = test system: Stat1; assay: Activated Stat1 in kidney and lung lysates of LPS-treated mice (immunoblot); format: in vivo, mouse; settings: LPS-treated mice of Table 5
# From the text: In order to more definitively determine if LPS-induced IFN-β signaling and LPS-induced increases in IRF-1 and IP-10 in vivo might be attenuated by an effect of C10 treatment on Stat1 activation, protein phosphorylation levels of Stat1 in whole tissue lysates were examined in mice from Table 5. […] In contrast neither LPS nor C10 had any effect on total Stat1 in these tissues (FIG. 8, bottom blots). […] Based on literature studies described in immune cells and results we have described in nonimmune cells (FIGS. 4-6; Tables 2, 3), it is reasonable to state that C10 blocks Stat1/IRF-1 signals in vivo as well as in vitro, this is important in the therapy of toxic shock where these genes are not only involved but critical to disease expression. C10 therapy is thus important in reducing pathologic changes in multiple tissues whose organ failure is known to contribute to the signs and symptoms of toxic shock.
# Immunoblot analysis of RAW 264.7 and mouse tissues: Nuclear and cytoplasmic extracts for RAW cells were prepared using NE-PER® extraction reagents (Pierce, Rockford, Ill.) in the presence of a protease inhibitor mixture (PMSF, leupeptin, and pepstatin A). […] Binding of HRP-conjugated goat anti-rabbit Ab (sc-2054; Santa Cruz Biotechnology, Inc., Santa Cruz, Calif.) was detected using the ECLplus Western Blotting Detection System (Amersham Biosciences, Piscataway, N.J.).
# [3] = test system: horses; assay: Peritonitis and endotoxic shock in horses induced by intraperitoneal caecal fluid; format: in vivo, horse
# [4] = test system: RAW 264.7 cells; assay: LPS-induced cytokine mRNA in RAW 264.7 macrophages (real-time PCR, Northern); settings: RAW 264.7, LPS 1 μg/mL
# [5] = 1 hour, real-time PCR vs DMSO control
# [6] = 3 hours, real-time PCR vs DMSO control
compound,measurement,setting,value
"Cn1c(-c2ccccc2)cnc1S [Compound C10, 5-Phenylmethimazole]","ISRE activation by poly (I:C), LPS, IL-1β, TNF-α, IFN-β and IFN-γ (ISRE-Luc)","[1]; FRTL-5, 6 hours",effective inhibitor
same,"ISRE-Luc Relative Luciferase Activity % of Control (±15%), +C10","[1]; FRTL-5, Ligand None, 6 hours",100 % of Control
same,activated (phosphorylated) Stat1 protein levels in kidney and lung,[2],reduced to basal
same,effectiveness of treatment,[3]; 10 animals so treated,100%
same,time to disappearance of signs of collapse or depression after the C-10 bolus,[3]; C10 2 mg/kg intravenous bolus at 12 hours,≤ 15 min
same,survival rate,"[3]; endotoxemia and shock due to septic peritonitis, intraperitoneal inoculation of intestinal flora",100%
same,reduction in LPS-increased TNF-α,"[4]; 1 or 6 hours, real-time PCR",no reduction
same,decrease in LPS-increased IFN-β gene expression,[4]; [5],8 fold
same,decrease in LPS-induced IL-1β,[4]; [5],11 fold
same,decrease in LPS-increased IL-6,[4]; [6],16 fold and > 16 fold
same,reduction in LPS-increased TNF-α,[4]; [6],4 fold
same,reduction in LPS-induced IL-12 p40,"[4]; 6 hours, real-time PCR vs DMSO control",16 fold
